This note sets out measurements from patent US8404694B2, “Aurora kinase modulators and method of use” (Amgen Inc., priority 2008, dated 2013).

For one test, the system named is HeLa cells. Description: HeLa cell 24 hr ploidy assay. Particulars: Homo sapiens, 24 hrs treatment, DNA content (ploidy), read-out: 24 h_4N Ploidy EC50—IP (Avg). The format is cell-based. The method, then:
HeLa Cell 24 hr Ploidy Assay Protocol
The purpose of this assay is to evaluate the ability of selected individual compounds to induce Deoxyribonucleic acid (DNA) content (ploidy) in cells thought failed cell division. Cell cycle analysis is a rapid and efficient way to evaluate the status of DNA content (ploidy) of a given cell. HeLa cells (1×10^4 HeLa cells/well) in 100 ul of media (MEM+10% FBS) were plated in 96-well plates (Packard View) and cultured for 24 hrs at 37° C. maintained in a 5% CO2 atmosphere. The following day, cells were treated for 24 hrs with inhibitor compounds (10 pt. Dose ranging from 0.0024-1.25 umol/L). The compounds were serially diluted in DMSO (0.25% final concentration). The cells were fixed (3.7% Formaldehyde and 1% glutaraldehyde) and permeabilized (1×PBS with 1% BSA and 0.2% Triton X-100) in preparation for nuclear staining. The well plates were stained for 45 minutes at RT in the dark using Hoechest 33342 nuclear stain at 0.5 ug·ml (Stock of 10 mg/ml, Invitrogen, CA, Cat # H3570). The nuclear stain was removed by aspiration and the cells were washed with wash buffer. A Cellomics Array Scan Vti plate reader was used to acquire the DNA ploidy data of the cells using Cell Cycle bioapplication. Numbers for each of “valid cell count/well”, “% of 4N cells” and “% of >4Ncells” were calculated with the assistance of an Activity Base 5.1ca software and dose curves were generated using an XLFit software. With XLFit, final EC50 IP and EC50 transit values, as well as the Max and Min, were calculated for each curve. Many of the Examples described herein were tested, and fund to be active compounds. Table I includes related biological data in the 24 h cell-ploidy content assay, which may be interpreted using the activity gauge below: […]

The next test addresses T1, AuroraA-TPX2 (Homo sapiens, UniProt O14965).
T1 construct: 20 μL of AuroraA-TPX2 KD GST; GST
T1 sequence (O14965 133-383 limits assumed): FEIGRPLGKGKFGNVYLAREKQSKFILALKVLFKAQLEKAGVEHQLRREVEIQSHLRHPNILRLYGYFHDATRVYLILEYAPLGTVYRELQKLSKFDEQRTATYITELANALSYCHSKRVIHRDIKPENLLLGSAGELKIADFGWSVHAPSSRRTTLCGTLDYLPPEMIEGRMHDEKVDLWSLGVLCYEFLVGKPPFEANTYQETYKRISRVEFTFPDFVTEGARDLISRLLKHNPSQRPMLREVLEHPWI
T1 sequence (Q9ULW0 1-747 partner): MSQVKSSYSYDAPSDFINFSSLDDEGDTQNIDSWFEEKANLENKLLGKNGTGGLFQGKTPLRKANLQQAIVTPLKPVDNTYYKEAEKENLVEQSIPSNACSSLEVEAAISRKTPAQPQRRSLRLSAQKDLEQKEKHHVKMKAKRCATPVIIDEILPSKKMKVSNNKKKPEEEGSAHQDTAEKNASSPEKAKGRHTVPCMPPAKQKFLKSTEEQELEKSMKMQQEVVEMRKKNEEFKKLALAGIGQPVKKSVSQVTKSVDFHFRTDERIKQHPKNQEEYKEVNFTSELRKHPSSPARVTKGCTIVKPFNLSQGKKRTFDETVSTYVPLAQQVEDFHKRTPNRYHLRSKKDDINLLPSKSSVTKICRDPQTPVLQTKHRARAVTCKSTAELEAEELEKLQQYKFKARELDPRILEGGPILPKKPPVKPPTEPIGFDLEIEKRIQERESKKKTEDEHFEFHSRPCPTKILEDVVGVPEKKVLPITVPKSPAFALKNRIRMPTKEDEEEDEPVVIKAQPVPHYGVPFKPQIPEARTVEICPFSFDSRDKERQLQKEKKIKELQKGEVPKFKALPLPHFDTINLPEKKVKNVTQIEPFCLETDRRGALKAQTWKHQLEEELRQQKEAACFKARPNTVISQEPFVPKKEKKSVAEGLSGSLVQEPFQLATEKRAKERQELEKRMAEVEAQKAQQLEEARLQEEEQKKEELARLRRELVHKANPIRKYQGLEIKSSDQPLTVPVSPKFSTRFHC
Put plainly: AuroraA-TPX2 Homogeneous Time Resolved Fluorescent (HTRF) kinase assay. The class given is biochemical. The note with it: ATP about 1 μM, biotinylated PLK peptide, read-out: AurA_IC50—IP (Avg). The method, then:
AuroraA-TPX2-Homogeneous Time Resolved Fluorescent (HTRF) Kinase Assay:
The Aurora-A HTRF assay begins with Aurora-A in the presence of ATP phosphorylating the biotinylated peptide PLK. The reaction incubates for about 120 min. Detection reagents are added to quench the reaction. These agents stop the reaction by diluting out the enzyme and chelating the metals due to the presence of EDTA. After addition, the assay is incubated overnight to allow the detection reagents to equilibrate.
The AuroraA HTRF assay comprises 1 μL of compound in 100% DMSO, 20 μL of ATP and biotinylated PLK, and 20 μL of AuroraA-TPX2 KD GST for a final volume of about 41 μL. The final concentration of PLK is about 1 μM. The final concentration of ATP is about 1 μM (Km(app)=1 μM+/−0.1) and the final concentration of AuroraA is about 5 nM. Buffer conditions are as follows: 60 mM HEPES pH 7.5, 25 mM NaCl, 10 mM MgCl, 2 mM DTT, 0.05% BSA.
The assay is quenched and stopped with 160 μL of detection reagent. Detection reagents are as follows: Buffer made of 50 mM Tris, pH 7.5, 100 mM NaCl, 3 mM EDTA, 0.05% BSA, 0.1% Tween20. Added to this buffer prior to reading is Steptavidin allophycocyanin (SA-APC) at a final conc in the assay of 0.0005 mg/mL, and europilated anti-phosphoPLK Ab (Eu-anti-PLK) at a final conc of 0.02 nM.
The assay plate is read in either a Discovery or a RubyStar. The eu-anti-PLK is excited at 320 nm and emits at 615 nm to excite the SA-APC which in turn emits at 655 nm. The ratio of SA-APC at 655 nm (excited due to close proximity to the Eu-anti-PLK because of phosphorylation of the peptide) to free Eu-anti-PLK at 615 nm will give substrate phosphorylation.
(§1) Many of the Examples described herein were tested, and found to be active compounds. Table I includes related biological data, which may be interpreted using the activity gauge below: […]

The target of the next test is T2, AuroraB (Homo sapiens, UniProt Q96GD4).
T2 construct: 20 μL of AuroraB FL His; His
Description: AuroraB Homogeneous Time Resolved Fluorescent (HTRF) kinase assay. Particulars: ATP 23 μM, biotinylated Histone H3 peptide, read-out: AurB_IC50—IP (Avg). The format is biochemical. The method, then: AuroraB-Homogeneous Time Resolved Fluorescent (HTRF) Kinase Assay:
The AuroraB HTRF assay begins with AuroraB in the presence of ATP phosphorylating the biotinylated peptide Histone H3. The reaction incubates for about 90 min. the reaction is quenched by addition of detection reagents, which stop the reaction by diluting out the enzyme and chelating the metals due to the presence of EDTA. After addition, the assay is incubated for about 60 min to allow detection reagents to equilibrate.
The AuroraB HTRF assay comprises 1 μL of compound in 100% DMSO, 20 μL of ATP and biotinylated Histone H3, and 20 μL of AuroraB FL His for a final volume of 41 μL. The final concentration of Histone H3 is 0.1 μM. The final concentration of ATP is 23 μM (Km(app)=23 μM+/−2.6) and the final concentration of AuroraB is 400 pM. Buffer conditions are as follows: 50 mM HEPES pH 7.5, 5 mM NaCl, 0.5 mM MgCl, 0.5 mM MnCl, 2 mM DTT, 0.05% BSA.
The assay is quenched and stopped with 160 μL of detection reagent. Detection reagents are as follows: Buffer made of 50 mM Tris, pH 7.5, 100 mM NaCl, 3 mM EDTA, 0.05% BSA, 0.1% Tween20. Added to this buffer prior to reading is Steptavidin allophycocyanin (SA-APC) at a final conc in the assay of 0.001 mg/mL, and europilated anti-phosphoHistoneH3 Ab (Eu-anti-His H3) at a final conc of 0.064 nM.
The assay plate is read in either a Discovery or a RubyStar. The eu-anti-His H3 is excited at 320 nm and emits at 615 nm to excite the SA-APC which in turn emits at 655 nm. The ratio of SA-APC at 655 nm (excited due to close proximity to the Eu-anti-His H3 because of phosphorylation of the peptide) to free Eu-anti-His H3 at 615 nm will give substrate phosphorylation.
as §1

T2 sequence (Q96GD4 whole entry): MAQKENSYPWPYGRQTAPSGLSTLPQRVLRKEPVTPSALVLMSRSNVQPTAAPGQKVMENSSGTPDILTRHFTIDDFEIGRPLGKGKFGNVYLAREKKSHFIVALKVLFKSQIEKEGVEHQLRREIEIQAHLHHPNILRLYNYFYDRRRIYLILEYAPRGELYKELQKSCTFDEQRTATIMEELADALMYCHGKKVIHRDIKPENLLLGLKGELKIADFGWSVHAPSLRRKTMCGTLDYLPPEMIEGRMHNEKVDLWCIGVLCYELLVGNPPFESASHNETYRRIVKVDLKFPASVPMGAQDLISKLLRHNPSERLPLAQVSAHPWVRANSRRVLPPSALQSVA

As usually defined, the EC50 is the concentration needed to bring the measured effect to its halfway point. Take `C=CCOc1cc2nccc(Sc3ccc(Nc4nnc(-c5ccc(Cl)cc5)c5ccccc45)cc3)n2n1` [Example 4, N-(4-(2-(allyloxy)pyrazolo[1,5-a]pyrimidin-7-ylthio)phenyl)-4-(4-chlorophenyl)phthalazin-1-amine]: the half-maximal effective concentration (EC50) with HeLa cells fell in the range of 100 to 500 nM.

As for `Clc1ccc(-c2nnc(Nc3ccc(Oc4ccnn5cccc45)cc3)c3ccccc23)cc1` [Example 2, 4-(4-Chlorophenyl)-N-(4-(pyrrolo[1,2-b]pyridazin-4-yloxy)phenyl)-1-phthalazinamine], the IC50 is 100 to 500 nM at AuroraA-TPX2 and below 100 nM on AuroraB. For the same molecule, in the test on HeLa cells, the concentration for a half-maximal effect (EC50) lay within 100 to 500 nM.

Regarding `c1ccc(-c2nnc(Nc3ccc(Sc4ccnc5cc(C6CC6)nn45)cc3)c3ccccc23)cc1` [Example 22, N-(4-((2-cyclopropylpyrazolo[1,5-a]pyrimidin-7-yl)thio)phenyl)-4-phenyl-1-phthalazinamine], the IC50 was 100 to 500 nM on AuroraA-TPX2 and below 100 nM at AuroraB. The EC50 with HeLa cells is below 100 nM.

For `Clc1ccc(-c2nnc(Nc3ccc(Sc4ccnc5ccnn45)cc3)c3ccccc23)nc1` [Example 20, 4-(5-chloro-2-pyridinyl)-N-(4-(pyrazolo[1,5-a]pyrimidin-7-ylthio)phenyl)-1-phthalazinamine], the IC50 on AuroraA-TPX2 and on AuroraB was below 100 nM in each case. In addition, in the test with HeLa cells, the EC50 is below 100 nM.

With `Clc1ccn2ncnc(Sc3ccc(Nc4nnc(-c5ccccc5)c5ccccc45)cc3)c12` [Example 29, N-(4-((5-chloropyrrolo[2,1-f][1,2,4]triazin-4-yl)thio)phenyl)-4-phenyl-1-phthalazinamine], the IC50 was above 2500 nM on AuroraA-TPX2 and below 100 nM on AuroraB. For the same molecule, in the test with HeLa cells, the EC50 lay within 100 to 500 nM.

As to `COCCOc1cc2nccc(Sc3ccc(Nc4nnc(-c5ccc(Cl)cc5)c5ccccc45)cc3)n2n1` [Example 6, 4-(4-Chlorophenyl)-N-(4-(2-(2-methoxyethoxy)pyrazolo[1,5-a]pyrimidin-7-ylthio)phenyl)phthalazin-1-amine], the IC50 on AuroraA-TPX2 and on AuroraB was below 100 nM throughout. The half-maximal effective concentration (EC50) in the test with HeLa cells is below 100 nM.

In the case of `Cc1csc(-c2nnc(Nc3ccc(Sc4ccnc5cc(C6CC6)nn45)cc3)c3ccccc23)c1` [Example 23, N-(4-((2-cyclopropylpyrazolo[1,5-a]pyrimidin-7-yl)thio)phenyl)-4-(4-methyl-2-thienyl)-1-phthalazinamine], the IC50 on AuroraA-TPX2 is below 100 nM; at AuroraB it was 100 to 500 nM. The EC50 in the test on HeLa cells is below 100 nM.

As to `Clc1ccc(-c2nnc(Nc3ccc(Sc4ccnc5cc(C6CC6)nn45)cc3)c3ccccc23)cc1` [Example 1, 4-(4-Chlorophenyl)-N-(4-(2-cyclopropylpyrazolo[1,5-a]pyrimidin-7-ylthio)phenyl)phthalazin-1-amine], the IC50 on AuroraA-TPX2 is above 2500 nM; at AuroraB, below 100 nM. For the same molecule, the EC50 in the test with HeLa cells was below 100 nM.

As to `COCCOc1cc2nccc(Sc3ccc(Nc4nnc(-c5ccccc5)c5ccccc45)cc3)n2n1` [Example 27, N-(4-((2-((2-(methyloxy)ethyl)oxy)pyrazolo[1,5-a]pyrimidin-7-yl)thio)phenyl)-4-phenyl-1-phthalazinamine], the IC50 on AuroraA-TPX2 is 100 to 500 nM; on AuroraB, below 100 nM. Besides, the concentration giving a half-maximal response (EC50) with HeLa cells is below 100 nM.

Consider `Cc1csc(-c2nnc(Nc3ccc(Oc4ncnn5cccc45)cc3)c3ccccc23)c1` [Example 24, 4-(4-methyl-2-thienyl)-N-(4-(pyrrolo[2,1-f][1,2,4]triazin-4-yloxy)phenyl)-1-phthalazinamine], for which the IC50 on AuroraA-TPX2 is 100 to 500 nM; on AuroraB, below 100 nM. The half-maximal effective concentration (EC50) with HeLa cells was 100 to 500 nM.

In the case of `Clc1ccc(-c2nnc(Nc3ccc(Oc4ncnn5cccc45)cc3)c3ccccc23)cc1` [Example 3, 4-(4-Chlorophenyl)-N-(4-(pyrrolo[2,1-f][1,2,4]triazin-4-yloxy)phenyl)-1-phthalazinamine], the figures for the IC50 at AuroraA-TPX2 and on AuroraB were 500 to 2500 nM and below 100 nM, respectively. Besides, the concentration giving a half-maximal response (EC50) with HeLa cells is 500 to 2500 nM.

Turning to `Clc1ccc(-c2nnc(Nc3ccc(Sc4ncnn5cccc45)cc3)c3ccccc23)cc1` [Example 25, 4-(4-chlorophenyl)-N-(4-(pyrrolo[2,1-f][1,2,4]triazin-4-ylthio)phenyl)-1-phthalazinamine], the IC50 on AuroraA-TPX2 was above 2500 nM; on AuroraB it was below 100 nM. In the test with HeLa cells, the EC50 was 100 to 500 nM.
